Test results reported in ChEMBL document CHEMBL1201862, “PubChem BioAssay data set” (2004).
Activity calls are given as the source filed them.

Tests used:
[1] = target: Ras and Rab interactor 1/Tyrosine-protein kinase ABL1 (Homo sapiens, UniProt P00519+Q13671); type: functional;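 also: biochemical TR-FRET dose-response test measuring inhibition of binding between Rin1 and Abl proteins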
[2] = target: T1, Orexin receptor type 2 (Homo sapiens, UniProt O43614); experiment: Counterscreen assay for antagonists of the orexin 1 receptor (OX1R; HCRTR1): Homogeneous Time Resolved Fluorescence (HTRF)-based cell-based dose response assay for antagonists of the orexin 2 receptor (OX2R; HCRTR2), run by assay provider.; type: functional
T1 sequence (O43614 whole entry): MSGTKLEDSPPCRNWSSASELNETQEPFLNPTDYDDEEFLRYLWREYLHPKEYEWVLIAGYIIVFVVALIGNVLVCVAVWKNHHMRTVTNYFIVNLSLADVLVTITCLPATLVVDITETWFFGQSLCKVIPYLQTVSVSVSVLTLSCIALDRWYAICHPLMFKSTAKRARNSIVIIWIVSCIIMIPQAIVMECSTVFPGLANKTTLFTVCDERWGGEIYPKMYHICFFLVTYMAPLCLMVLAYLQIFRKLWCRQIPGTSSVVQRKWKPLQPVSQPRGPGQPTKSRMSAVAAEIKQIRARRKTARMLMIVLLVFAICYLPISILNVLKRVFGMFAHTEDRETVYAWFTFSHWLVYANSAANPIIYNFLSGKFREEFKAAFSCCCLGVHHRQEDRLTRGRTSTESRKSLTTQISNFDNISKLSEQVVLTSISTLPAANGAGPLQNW

[3] = target: Eukaryotic translation initiation factor 4E (Mus musculus, UniProt P63073); experiment: blockers of eIF4G binding by eIF4E – biochemical, TR-FRET, dose response (AID 855); type: functional;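 also: potency for disrupting eIF4E binding to eIF4GI seen as loss of FRET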
Chain of Eukaryotic translation initiation factor 4E (P63073 whole entry): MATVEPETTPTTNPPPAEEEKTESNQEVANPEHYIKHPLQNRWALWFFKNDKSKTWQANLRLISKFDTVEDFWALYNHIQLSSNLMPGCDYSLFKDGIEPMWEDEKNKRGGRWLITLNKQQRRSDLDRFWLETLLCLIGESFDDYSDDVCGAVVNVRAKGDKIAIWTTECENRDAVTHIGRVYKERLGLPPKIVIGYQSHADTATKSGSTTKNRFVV

[4] = viability of uninfected HEp-2 cells – cell-based, HTS, cytotoxicity control for RSV inhibitor project, dose response (AID 2410); type: functional; conditions: human respiratory syncytial virus
[5] = (§1) Counterscreen for antagonists of the orexin 1 receptor (OX1R; HCRTR1): Fluorescence-based cell-based high throughput dose response assay to identify antagonists of the parental CHO cell line. [Related pubchem assays (depositor defined):AID434989, AID435008, AID463079, AID485270, AID492963, AID492964, AID492965, AID493232, AID504699, AID504701]; type: functional
[6] = target: T1, Orexin receptor type 2; experiment: Counterscreen assay for antagonists of the orexin 1 receptor (OX1R; HCRTR1): Fluorescence-based cell-based dose response assay for antagonists of the orexin 2 receptor (OX2R; HCRTR2), run by assay provider.; type: functional
[7] = test system: CHO-K1; experiment: as §1, with “Homogeneous time resolved fluorescence (HTRF)-based” for “Fluorescence-based”, “cell-based” for “cell-based high throughput”, “CHO-K1” for “CHO”; type: functional; conditions: Cricetulus griseus;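 also: potency for inhibition of ATP-stimulated IP1 production as antagonists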
[8] = target: T2, Orexin/Hypocretin receptor type 1 (Homo sapiens, UniProt O43613); experiment: Homogeneous Time Resolved Fluorescence (HTRF)-based cell-based high throughput dose response assay for antagonists of the orexin 1 receptor (OX1R; HCRTR1). [Related pubchem assays (depositor defined):AID434989, AID435008, AID463079, AID485270, AID492963, AID492964, AID492965, AID493232, AID504717, AID504718]; type: functional
T2 sequence (O43613 whole entry): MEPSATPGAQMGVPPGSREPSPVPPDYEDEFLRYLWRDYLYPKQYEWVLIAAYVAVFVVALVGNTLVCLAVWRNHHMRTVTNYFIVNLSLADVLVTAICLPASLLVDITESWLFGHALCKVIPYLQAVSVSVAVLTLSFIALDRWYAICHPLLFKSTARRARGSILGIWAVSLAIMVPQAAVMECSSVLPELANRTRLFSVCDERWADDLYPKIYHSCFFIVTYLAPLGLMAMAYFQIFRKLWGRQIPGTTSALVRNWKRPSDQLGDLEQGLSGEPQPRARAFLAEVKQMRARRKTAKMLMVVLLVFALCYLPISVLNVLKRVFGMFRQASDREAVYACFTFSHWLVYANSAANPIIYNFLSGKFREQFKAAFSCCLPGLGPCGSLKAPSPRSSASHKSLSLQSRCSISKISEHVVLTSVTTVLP

[9] = target: T2, Orexin/Hypocretin receptor type 1; experiment: Fluorescence-based cell-based high throughput dose response assay for antagonists of the orexin 1 receptor (OX1R; HCRTR1). [Related pubchem assays (depositor defined):AID434989, AID435008, AID463079, AID485270, AID492963, AID492964, AID492965, AID493232, AID504717, AID504718]; type: functional
[10] = target: Cytochrome P450 2C9 (Homo sapiens, UniProt P11712)
Chain of Cytochrome P450 2C9 (P11712 whole entry): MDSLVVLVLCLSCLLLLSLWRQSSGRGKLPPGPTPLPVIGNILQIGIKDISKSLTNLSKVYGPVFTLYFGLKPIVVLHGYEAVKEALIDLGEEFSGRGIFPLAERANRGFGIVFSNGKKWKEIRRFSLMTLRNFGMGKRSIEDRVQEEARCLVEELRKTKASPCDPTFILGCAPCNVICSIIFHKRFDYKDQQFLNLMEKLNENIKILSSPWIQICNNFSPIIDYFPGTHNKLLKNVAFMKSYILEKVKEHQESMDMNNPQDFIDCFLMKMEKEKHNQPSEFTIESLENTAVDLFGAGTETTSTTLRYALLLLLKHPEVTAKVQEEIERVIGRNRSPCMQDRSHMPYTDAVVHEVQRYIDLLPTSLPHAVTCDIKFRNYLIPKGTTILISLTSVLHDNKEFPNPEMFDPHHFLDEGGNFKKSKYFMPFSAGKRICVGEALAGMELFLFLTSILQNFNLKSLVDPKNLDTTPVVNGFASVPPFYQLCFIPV

[11] = Luminescence Cell-Based Dose Confirmation HTS to Identify Inhibitors of Platelet Dense Granule Release. [Related pubchem assays: 1663 (Primary HTS), 1678 (Summary of Project)]; type: functional
[12] = target: Cytochrome P450 2D6 (Homo sapiens, UniProt P10635);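 also: CYP2D6 member of a cytochrome P450 panel assay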
Chain of Cytochrome P450 2D6 (P10635 whole entry): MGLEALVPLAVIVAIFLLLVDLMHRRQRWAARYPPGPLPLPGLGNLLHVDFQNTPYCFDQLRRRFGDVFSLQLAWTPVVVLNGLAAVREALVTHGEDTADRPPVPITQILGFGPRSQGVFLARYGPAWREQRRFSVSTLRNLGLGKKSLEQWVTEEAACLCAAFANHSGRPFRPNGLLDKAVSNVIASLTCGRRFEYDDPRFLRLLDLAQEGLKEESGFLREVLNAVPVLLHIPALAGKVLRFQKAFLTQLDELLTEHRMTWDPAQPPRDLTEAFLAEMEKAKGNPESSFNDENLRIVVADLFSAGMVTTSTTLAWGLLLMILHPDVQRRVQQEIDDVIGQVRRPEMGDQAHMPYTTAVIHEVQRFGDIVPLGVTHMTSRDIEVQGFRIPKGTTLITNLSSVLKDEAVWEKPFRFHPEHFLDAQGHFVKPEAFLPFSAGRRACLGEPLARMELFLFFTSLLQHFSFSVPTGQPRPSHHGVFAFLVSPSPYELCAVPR

[13] = target: Luciferin 4-monooxygenase (Photinus pyralis, UniProt P08659); experiment: inhibition of purified Photinus pyralis luciferase – biochemical, luminescence, dose response (AID 1891)
Chain of Luciferin 4-monooxygenase (P08659 whole entry): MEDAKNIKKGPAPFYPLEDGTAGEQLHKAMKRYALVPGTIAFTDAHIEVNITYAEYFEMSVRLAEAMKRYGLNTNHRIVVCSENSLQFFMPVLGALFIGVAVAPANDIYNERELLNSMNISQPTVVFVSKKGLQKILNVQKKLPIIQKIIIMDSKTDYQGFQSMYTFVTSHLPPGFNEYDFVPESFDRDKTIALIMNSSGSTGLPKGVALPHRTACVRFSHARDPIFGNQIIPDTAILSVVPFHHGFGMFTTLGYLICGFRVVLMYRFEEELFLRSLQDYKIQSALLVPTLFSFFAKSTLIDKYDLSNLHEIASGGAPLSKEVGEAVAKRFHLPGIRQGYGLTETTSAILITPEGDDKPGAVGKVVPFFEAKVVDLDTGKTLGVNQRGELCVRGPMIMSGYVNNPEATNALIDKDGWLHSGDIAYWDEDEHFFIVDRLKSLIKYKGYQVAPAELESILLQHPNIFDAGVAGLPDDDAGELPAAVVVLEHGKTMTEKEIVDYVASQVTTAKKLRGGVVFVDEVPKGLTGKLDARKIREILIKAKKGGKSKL

[14] = target: T3, Caspase-3 (Homo sapiens, UniProt P42574); experiment: SAR Analysis of small molecule inhibitors of Sentrin-specific proteases (SENPs) using a Caspase-3 Selectivity assay. [Related pubchem assays (depositor defined):AID2540, AID2599, AID434973, AID489001]; type: functional
T3 sequence (P42574 whole entry): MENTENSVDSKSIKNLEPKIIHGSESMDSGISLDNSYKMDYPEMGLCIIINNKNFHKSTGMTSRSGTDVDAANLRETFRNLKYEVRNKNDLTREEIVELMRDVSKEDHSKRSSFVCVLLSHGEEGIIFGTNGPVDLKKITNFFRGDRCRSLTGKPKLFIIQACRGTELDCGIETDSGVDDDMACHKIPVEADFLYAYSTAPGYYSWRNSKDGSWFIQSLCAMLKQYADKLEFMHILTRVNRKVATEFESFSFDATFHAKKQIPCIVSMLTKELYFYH

[15] = target: T4, Sentrin-specific protease 7 (Homo sapiens, UniProt Q9BQF6); experiment: inhibition of human SENP7 cleavage activity – biochemical, luminescence, SAR follow-up (AID 504497); type: functional
T4 sequence (Q9BQF6 whole entry): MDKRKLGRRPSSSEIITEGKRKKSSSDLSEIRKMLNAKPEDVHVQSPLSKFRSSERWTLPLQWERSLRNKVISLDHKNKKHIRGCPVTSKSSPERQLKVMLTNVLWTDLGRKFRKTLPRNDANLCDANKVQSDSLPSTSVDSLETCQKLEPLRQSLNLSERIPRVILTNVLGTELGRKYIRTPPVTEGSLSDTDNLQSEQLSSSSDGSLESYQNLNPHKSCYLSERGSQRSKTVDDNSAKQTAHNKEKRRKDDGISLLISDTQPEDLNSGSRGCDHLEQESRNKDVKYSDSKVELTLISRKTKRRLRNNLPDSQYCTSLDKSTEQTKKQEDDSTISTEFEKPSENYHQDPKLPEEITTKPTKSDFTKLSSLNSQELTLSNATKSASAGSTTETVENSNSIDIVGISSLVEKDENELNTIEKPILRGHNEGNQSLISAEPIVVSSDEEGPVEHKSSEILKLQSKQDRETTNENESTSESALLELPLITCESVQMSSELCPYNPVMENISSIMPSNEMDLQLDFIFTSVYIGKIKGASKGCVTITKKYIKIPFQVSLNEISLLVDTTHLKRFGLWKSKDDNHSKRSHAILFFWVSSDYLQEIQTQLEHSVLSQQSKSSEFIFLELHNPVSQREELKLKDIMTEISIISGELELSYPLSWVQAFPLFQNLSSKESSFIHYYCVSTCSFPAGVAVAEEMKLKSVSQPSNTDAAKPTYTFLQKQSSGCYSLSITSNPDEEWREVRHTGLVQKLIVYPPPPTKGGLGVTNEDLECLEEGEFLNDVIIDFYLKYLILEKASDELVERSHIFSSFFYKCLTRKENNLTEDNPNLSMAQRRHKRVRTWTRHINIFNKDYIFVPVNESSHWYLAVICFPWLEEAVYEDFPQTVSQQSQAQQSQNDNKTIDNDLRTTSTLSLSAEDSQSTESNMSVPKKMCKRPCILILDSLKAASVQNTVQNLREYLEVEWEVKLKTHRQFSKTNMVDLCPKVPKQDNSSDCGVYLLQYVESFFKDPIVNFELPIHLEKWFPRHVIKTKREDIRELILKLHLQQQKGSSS

[16] = target: T5, Protein skinhead-1 (Caenorhabditis elegans, UniProt P34707); type: functional
T5 sequence (P34707 whole entry): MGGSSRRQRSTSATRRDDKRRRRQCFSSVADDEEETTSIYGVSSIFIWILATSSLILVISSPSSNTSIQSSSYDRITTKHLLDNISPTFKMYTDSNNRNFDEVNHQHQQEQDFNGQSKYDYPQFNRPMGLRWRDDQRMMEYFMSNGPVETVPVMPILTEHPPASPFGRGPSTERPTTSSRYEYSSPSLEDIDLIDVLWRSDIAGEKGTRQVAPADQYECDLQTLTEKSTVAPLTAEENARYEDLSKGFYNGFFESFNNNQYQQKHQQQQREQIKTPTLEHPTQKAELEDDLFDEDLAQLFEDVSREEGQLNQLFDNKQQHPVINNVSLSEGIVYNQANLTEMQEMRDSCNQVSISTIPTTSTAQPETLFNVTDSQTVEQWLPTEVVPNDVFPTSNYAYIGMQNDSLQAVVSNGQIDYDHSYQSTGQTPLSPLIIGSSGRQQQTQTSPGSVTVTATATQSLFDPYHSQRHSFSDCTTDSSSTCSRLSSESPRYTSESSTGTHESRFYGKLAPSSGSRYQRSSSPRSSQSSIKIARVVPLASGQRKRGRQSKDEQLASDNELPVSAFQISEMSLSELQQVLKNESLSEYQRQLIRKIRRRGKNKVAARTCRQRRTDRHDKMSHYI

[17] = target: T6, Sentrin-specific protease 8 (Homo sapiens, UniProt Q96LD8); experiment: inhibition of human SENP8 cleavage activity – biochemical, luminescence, SAR follow-up (AID 504501); type: functional
T6 sequence (Q96LD8 whole entry): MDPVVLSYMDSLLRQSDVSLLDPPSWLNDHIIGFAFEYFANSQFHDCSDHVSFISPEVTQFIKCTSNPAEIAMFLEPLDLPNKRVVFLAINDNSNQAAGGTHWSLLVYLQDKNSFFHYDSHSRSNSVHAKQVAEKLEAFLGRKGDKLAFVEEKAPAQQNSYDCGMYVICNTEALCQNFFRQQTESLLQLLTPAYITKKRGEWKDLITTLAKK

[18] = target: T7, Sentrin-specific protease 6 (Homo sapiens, UniProt Q9GZR1); experiment: SAR Analysis of small molecule inhibitors of Sentrin-specific protease 6 (SENP6) using a Luminescent assay. [Related pubchem assays (depositor defined):AID2582, AID2599]; type: functional
T7 sequence (Q9GZR1 whole entry): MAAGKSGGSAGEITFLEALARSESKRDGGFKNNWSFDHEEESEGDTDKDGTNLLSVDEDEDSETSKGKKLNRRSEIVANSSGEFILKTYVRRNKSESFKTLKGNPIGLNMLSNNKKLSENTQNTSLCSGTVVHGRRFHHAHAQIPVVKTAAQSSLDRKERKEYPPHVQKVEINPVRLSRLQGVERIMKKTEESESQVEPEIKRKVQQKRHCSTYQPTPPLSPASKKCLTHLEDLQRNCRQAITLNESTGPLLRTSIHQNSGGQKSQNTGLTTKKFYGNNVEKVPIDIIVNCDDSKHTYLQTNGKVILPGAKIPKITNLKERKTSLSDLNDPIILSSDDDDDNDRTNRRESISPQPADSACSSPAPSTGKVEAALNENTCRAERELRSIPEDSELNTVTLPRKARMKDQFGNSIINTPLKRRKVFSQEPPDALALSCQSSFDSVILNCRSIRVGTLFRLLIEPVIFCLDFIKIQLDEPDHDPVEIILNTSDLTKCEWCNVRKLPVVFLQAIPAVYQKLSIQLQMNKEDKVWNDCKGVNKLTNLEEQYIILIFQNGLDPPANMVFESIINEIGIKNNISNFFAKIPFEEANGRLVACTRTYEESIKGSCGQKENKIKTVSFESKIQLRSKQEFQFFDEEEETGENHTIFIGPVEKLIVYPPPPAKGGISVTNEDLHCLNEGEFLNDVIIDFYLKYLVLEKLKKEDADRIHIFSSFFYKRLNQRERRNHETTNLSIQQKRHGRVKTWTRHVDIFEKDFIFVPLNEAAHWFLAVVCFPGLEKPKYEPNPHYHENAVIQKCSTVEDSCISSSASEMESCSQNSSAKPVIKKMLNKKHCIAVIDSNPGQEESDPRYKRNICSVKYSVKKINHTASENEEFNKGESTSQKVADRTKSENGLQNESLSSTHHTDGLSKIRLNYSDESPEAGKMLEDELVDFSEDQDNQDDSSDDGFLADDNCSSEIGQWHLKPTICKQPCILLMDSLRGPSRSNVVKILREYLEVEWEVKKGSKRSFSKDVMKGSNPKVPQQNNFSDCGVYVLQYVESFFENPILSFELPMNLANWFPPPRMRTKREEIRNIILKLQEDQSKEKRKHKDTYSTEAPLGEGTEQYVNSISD

Chain of Ras and Rab interactor 1/Tyrosine-protein kinase ABL1 (P00519 whole entry): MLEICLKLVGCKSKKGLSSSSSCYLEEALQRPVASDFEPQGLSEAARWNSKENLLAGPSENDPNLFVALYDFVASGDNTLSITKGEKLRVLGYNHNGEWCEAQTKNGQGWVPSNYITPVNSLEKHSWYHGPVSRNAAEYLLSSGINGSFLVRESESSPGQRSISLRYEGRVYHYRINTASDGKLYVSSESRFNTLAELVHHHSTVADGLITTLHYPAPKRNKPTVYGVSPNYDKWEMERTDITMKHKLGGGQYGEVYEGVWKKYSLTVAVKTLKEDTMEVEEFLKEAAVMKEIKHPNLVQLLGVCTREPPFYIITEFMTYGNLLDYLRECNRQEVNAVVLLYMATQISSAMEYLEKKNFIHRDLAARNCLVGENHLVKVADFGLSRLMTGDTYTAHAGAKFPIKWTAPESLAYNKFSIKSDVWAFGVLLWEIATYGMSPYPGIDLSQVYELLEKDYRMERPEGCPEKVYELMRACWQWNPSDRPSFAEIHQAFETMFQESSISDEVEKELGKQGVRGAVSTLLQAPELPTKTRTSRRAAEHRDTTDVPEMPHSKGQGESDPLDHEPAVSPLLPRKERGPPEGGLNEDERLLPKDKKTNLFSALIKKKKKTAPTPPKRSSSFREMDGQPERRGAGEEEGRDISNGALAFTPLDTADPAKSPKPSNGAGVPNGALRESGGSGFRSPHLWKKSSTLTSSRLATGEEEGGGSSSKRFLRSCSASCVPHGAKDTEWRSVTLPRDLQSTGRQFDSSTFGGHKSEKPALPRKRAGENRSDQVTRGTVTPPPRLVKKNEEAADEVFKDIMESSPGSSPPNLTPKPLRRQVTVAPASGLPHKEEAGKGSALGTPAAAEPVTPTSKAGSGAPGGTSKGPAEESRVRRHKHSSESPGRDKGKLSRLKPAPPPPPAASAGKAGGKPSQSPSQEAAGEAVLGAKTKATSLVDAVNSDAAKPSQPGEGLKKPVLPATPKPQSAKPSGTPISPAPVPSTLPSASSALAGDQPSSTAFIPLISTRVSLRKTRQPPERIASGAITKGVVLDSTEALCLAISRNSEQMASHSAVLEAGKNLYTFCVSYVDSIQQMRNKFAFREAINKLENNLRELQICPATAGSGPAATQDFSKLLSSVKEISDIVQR
Chain of Ras and Rab interactor 1/Tyrosine-protein kinase ABL1 (Q13671 whole entry): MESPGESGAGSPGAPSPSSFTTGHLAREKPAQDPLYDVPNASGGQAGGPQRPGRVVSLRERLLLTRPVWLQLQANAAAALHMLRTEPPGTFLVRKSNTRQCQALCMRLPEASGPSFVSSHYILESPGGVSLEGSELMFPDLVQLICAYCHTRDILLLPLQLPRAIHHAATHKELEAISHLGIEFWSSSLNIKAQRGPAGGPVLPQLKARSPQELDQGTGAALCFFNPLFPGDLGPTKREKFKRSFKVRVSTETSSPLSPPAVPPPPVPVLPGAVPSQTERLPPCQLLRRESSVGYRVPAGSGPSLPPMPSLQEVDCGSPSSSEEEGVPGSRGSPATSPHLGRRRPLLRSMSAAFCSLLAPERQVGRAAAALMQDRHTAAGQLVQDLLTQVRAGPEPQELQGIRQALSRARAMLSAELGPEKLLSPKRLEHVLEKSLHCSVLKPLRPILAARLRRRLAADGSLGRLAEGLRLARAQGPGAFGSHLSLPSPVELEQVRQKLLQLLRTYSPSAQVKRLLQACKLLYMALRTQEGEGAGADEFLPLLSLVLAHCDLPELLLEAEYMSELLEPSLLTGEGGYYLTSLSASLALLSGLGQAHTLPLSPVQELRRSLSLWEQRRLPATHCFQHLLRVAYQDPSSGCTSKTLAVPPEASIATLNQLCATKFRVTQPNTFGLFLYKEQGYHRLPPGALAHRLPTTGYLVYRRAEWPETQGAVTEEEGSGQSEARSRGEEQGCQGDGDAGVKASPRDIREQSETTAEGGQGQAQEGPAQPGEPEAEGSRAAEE

Row | SMILES | IC50 [1] | IC50 [2] | IC50 [5] | IC50 [6] | IC50 [7] | IC50 [8] | IC50 [9] | other results
1 | CCOc1ccc(CCNC(=O)CN2C(=O)c3cccnc3Oc3ccc(C)cc32)cc1OCC | 9.82 µM (active) | – | – | – | – | – | – | –
2 | COc1ccc(S(=O)(=O)N2CCCCCC2)cc1C(=O)Nc1ccc(C(=O)N(C)C)cc1 | 8.07 µM (active) | – | – | – | – | – | – | –
3 | Cc1cnc(NC(=O)c2ccc(-c3nc4ccccc4s3)o2)s1 | – | > 50 µM (inactive) | > 49.8 µM (inactive) | > 88.8 µM (inactive) | 62 µM (inactive) | 333 nM (active) | 1.97 µM (active) | IC50 [3]: > 64 µM (inactive); CC50 [4]: 30.7 µM (active)
4 | COc1ccc(/C=N/Nc2snc(SC)c2C#N)cc1OC | – | > 50 µM (inactive) | > 49.8 µM (inactive) | > 88.8 µM (inactive) | > 66.2 µM (inactive) | 1930 nM (active) | 4.85 µM (active) | AC50 [10]: 12.6 µM (inconclusive); EC50 [11]: > 112 µM (not active); AC50 [12]: 282 nM (inconclusive); EC50 [13]: 46.8 µM (active)
5 | Fc1ccc(/C=C/c2nnc(-c3cccs3)o2)cc1 | – | – | – | – | – | – | – | IC50 [14]: 6.4 µM (active); IC50 [15]: 4.3 µM (active); IC50 [16]: > 100 µM (inactive); IC50 [17]: 47 µM (active); IC50 [18]: 39 µM (active)
6 | COc1ccc(NC(=O)C(=O)Nc2cccc3cccnc23)cc1OC | – | > 50 µM (inactive) | > 49.8 µM (inactive) | > 88.8 µM (inactive) | > 66.2 µM (inactive) | 475 nM (active) | 1.34 µM (active) | –
